Key:
[1] = biological target: Poly [ADP-ribose] polymerase 1 (Homo sapiens, UniProt P09874); assay: Inhibition of recombinant full length human N-terminal GST-tagged PARP1 expressed in baculovirus infected Sf9 cells using biotinylated substrate after 1 hr by UV/Vis spectrophotometric analysis
[2] = biological target: Poly [ADP-ribose] polymerase 2 (Homo sapiens, UniProt Q9UGN5); assay: Inhibition of recombinant human N-terminal GST-tagged PARP2 (2 to 583 residues) expressed in baculovirus infected Sf9 cells using biotinylated substrate after 1 hr by UV/Vis spectrophotometric analysis
Chain of Poly [ADP-ribose] polymerase 2 (Q9UGN5 whole entry, the tested form may be a part): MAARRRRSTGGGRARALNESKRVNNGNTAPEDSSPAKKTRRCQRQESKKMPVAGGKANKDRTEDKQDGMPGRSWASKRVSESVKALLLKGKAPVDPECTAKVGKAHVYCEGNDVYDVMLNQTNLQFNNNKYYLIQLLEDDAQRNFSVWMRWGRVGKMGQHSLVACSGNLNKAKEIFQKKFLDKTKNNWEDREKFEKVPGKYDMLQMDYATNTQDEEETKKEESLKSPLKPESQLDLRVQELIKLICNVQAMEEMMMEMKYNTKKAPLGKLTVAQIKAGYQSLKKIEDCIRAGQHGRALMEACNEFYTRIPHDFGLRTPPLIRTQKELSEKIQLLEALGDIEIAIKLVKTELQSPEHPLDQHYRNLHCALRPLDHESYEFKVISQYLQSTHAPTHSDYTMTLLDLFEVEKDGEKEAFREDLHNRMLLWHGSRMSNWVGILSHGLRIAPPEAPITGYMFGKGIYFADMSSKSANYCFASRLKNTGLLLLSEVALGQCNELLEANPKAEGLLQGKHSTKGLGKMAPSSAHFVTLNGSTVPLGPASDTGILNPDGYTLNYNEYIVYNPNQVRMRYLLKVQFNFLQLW

Histone deacetylase 1 = Histone deacetylase 1 (Homo sapiens, UniProt Q13547); assay: Inhibition of HDAC1 (unknown origin) using acetylated peptide substrate preincubated for 15 mins followed by substrate addition measured after 60 mins by fluorescence analysis
Chain of Histone deacetylase 1 (Q13547 whole entry): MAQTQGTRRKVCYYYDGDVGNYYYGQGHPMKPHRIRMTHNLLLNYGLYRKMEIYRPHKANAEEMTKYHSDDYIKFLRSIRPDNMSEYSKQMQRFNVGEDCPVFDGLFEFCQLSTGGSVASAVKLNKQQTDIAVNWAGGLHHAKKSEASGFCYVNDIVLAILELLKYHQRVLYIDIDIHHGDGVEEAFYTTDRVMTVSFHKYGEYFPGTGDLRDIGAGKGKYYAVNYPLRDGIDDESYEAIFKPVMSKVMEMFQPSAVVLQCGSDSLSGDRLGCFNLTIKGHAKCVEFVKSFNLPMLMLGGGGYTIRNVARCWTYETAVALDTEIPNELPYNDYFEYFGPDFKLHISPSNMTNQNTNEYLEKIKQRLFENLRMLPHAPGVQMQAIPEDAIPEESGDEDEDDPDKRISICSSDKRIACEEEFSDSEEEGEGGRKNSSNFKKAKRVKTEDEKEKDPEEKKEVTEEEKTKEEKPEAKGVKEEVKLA

[3] = biological target: T1, Protein deacetylase HDAC6 (Homo sapiens, UniProt Q9UBN7); assay: Inhibition of HDAC6 (unknown origin) using acetylated peptide substrate preincubated for 15 mins followed by substrate addition measured after 60 mins by fluorescence analysis
T1 sequence (Q9UBN7 whole entry): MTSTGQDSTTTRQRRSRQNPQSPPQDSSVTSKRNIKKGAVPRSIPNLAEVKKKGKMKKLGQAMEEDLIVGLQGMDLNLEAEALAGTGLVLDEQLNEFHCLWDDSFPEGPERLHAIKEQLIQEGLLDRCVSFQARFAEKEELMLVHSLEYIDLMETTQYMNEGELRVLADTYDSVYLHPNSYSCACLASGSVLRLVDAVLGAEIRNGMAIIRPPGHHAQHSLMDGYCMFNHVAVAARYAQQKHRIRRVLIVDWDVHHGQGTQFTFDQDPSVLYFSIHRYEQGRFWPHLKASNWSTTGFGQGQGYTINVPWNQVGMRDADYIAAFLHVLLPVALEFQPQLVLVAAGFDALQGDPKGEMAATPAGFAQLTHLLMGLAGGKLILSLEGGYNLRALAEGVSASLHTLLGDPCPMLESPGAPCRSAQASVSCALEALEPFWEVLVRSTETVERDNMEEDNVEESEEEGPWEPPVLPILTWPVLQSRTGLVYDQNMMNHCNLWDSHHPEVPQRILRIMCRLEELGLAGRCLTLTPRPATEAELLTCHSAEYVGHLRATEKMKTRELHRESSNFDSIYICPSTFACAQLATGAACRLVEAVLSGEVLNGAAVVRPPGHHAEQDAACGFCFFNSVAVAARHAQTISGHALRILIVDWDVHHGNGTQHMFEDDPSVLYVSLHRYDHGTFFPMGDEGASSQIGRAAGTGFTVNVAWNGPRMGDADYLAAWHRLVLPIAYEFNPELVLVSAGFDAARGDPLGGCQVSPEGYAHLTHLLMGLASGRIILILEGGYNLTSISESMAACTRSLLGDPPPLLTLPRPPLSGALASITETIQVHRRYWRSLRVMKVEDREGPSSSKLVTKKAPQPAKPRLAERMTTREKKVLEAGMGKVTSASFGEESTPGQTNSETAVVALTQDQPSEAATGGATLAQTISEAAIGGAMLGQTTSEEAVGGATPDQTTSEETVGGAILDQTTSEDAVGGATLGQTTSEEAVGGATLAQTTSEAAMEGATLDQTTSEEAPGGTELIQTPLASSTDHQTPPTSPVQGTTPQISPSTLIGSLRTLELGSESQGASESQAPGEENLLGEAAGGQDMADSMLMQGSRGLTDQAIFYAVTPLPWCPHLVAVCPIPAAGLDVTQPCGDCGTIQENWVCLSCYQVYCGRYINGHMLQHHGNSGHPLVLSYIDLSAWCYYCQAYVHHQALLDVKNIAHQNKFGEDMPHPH

T47D = assay: Antiproliferative activity against human T47D cells after 72 hrs by MTT assay; format: functional, cell-based
MCF7 = assay: Antiproliferative activity against human MCF7 cells after 72 hrs by MTT assay; format: functional, cell-based; settings: MCF7, 72 h
MDA-MB-231 [4] = assay: Antiproliferative activity against human MDA-MB-231 cells after 72 hrs by MTT assay; format: functional, cell-based; settings: MDA-MB-231, 72 h
HCC827 = assay: Antiproliferative activity against human HCC827 cells after 72 hrs by MTT assay; format: functional, cell-based; settings: HCC827, 72 h
HeLa = assay: Antiproliferative activity against human HeLa cells after 72 hrs by MTT assay; format: functional, cell-based
K562 = assay: Antiproliferative activity against human K562 cells after 72 hrs by MTT assay; format: functional, cell-based; settings: K562, 72 h
U-937 = assay: Antiproliferative activity against human U937 cells after 72 hrs by MTT assay; format: functional, cell-based; settings: U-937, 72 h
MDA-MB-231 [5] = assay: Antiproliferative activity against human MDA-MB-231 cells after 5 days by MTT assay; format: functional, cell-based; settings: MDA-MB-231, 120 h
MCF-10A = assay: Antiproliferative activity against human MCF10A cells after 72 hrs by MTT assay; format: cell-based
[6] = Safety index, ratio of compound IC50 to SAHA IC50 for human MCF10A cells; format: ADME, cell-based, MCF-10A; settings: read-out: Ratio IC50
Raji [7] = assay: Antiproliferative activity against human Raji cells after 3 days by MTT assay; format: functional, cell-based; settings: 72 h
HCC1937 = assay: Antiproliferative activity against human HCC1937 cells after 3 days by MTT assay; format: functional, cell-based; settings: HCC1937, 72 h
Raji [8] = assay: Potency index, ratio of SAHA IC50 to compound IC50 for human Raji cells; format: functional
MDA-MB-231 [9] = assay: Induction of apoptosis in human MDA-MB-231 cells assessed as early apoptotic cells at 2.5 uM after 48 hrs by Annexin V-FITC/propidium iodide staining based flow cytometry (reference value: 1.27%); format: functional
MDA-MB-231 [10] = assay: Induction of apoptosis in human MDA-MB-231 cells assessed as late apoptotic cells at 2.5 uM after 48 hrs by Annexin V-FITC/propidium iodide staining based flow cytometry (reference value: 3.82%); format: functional
MDA-MB-231 [11] = assay: Induction of apoptosis in human MDA-MB-231 cells assessed as necrotic cells at 2.5 uM after 48 hrs by Annexin V-FITC/propidium iodide staining based flow cytometry (reference value: 0.024%); format: functional
MDA-MB-231 [12] = assay: Induction of apoptosis in human MDA-MB-231 cells assessed as viable cells at 2.5 uM after 48 hrs by Annexin V-FITC/propidium iodide staining based flow cytometry (reference value: 94.9%); format: functional; settings: MDA-MB-231, 48 h, read-out: Activity
MDA-MB-231 [13] = assay: Induction of apoptosis in human MDA-MB-231 cells assessed as early apoptotic cells at 5 uM after 48 hrs by Annexin V-FITC/propidium iodide staining based flow cytometry (reference value: 1.27%); format: functional
MDA-MB-231 [14] = assay: Induction of apoptosis in human MDA-MB-231 cells assessed as late apoptotic cells at 5 uM after 48 hrs by Annexin V-FITC/propidium iodide staining based flow cytometry (reference value: 3.82%); format: functional
MDA-MB-231 [15] = assay: Induction of apoptosis in human MDA-MB-231 cells assessed as necrotic cells at 5 uM after 48 hrs by Annexin V-FITC/propidium iodide staining based flow cytometry (reference value: 0.024%); format: functional
MDA-MB-231 [16] = assay: Induction of apoptosis in human MDA-MB-231 cells assessed as viable cells at 5 uM after 48 hrs by Annexin V-FITC/propidium iodide staining based flow cytometry (reference value: 94.9%); format: functional; settings: MDA-MB-231, 48 h, read-out: Activity
MDA-MB-231 [17] = assay: Induction of apoptosis in human MDA-MB-231 cells assessed as early apoptotic cells at 10 uM after 48 hrs by Annexin V-FITC/propidium iodide staining based flow cytometry (reference value: 1.27%); format: functional
MDA-MB-231 [18] = assay: Induction of apoptosis in human MDA-MB-231 cells assessed as late apoptotic cells at 10 uM after 48 hrs by Annexin V-FITC/propidium iodide staining based flow cytometry (reference value: 3.82%); format: functional
MDA-MB-231 [19] = assay: Induction of apoptosis in human MDA-MB-231 cells assessed as necrotic cells at 10 uM after 48 hrs by Annexin V-FITC/propidium iodide staining based flow cytometry (reference value: 0.024%); format: functional
MDA-MB-231 [20] = assay: Induction of apoptosis in human MDA-MB-231 cells assessed as viable cells at 10 uM after 48 hrs by Annexin V-FITC/propidium iodide staining based flow cytometry (reference value: 94.9%); format: functional; settings: MDA-MB-231, 48 h, read-out: Activity
MDA-MB-231 [21] = assay: Induction of apoptosis in human MDA-MB-231 cells after 48 hrs by Annexin V-FITC/propidium iodide staining based flow cytometry; format: functional, cell-based
[22] = Antiproliferative activity against human MCF10A cells at less than 50 uM after 72 hrs by MTT assay relative to control; format: cell-based, MCF-10A
Homo sapiens = species: Homo sapiens; assay: Selectivity ratio of IC50 for HDAC1 (unknown origin) to IC50 for HDAC6 (unknown origin)

Chain of Poly [ADP-ribose] polymerase 1 (P09874 whole entry, the tested form may be a part): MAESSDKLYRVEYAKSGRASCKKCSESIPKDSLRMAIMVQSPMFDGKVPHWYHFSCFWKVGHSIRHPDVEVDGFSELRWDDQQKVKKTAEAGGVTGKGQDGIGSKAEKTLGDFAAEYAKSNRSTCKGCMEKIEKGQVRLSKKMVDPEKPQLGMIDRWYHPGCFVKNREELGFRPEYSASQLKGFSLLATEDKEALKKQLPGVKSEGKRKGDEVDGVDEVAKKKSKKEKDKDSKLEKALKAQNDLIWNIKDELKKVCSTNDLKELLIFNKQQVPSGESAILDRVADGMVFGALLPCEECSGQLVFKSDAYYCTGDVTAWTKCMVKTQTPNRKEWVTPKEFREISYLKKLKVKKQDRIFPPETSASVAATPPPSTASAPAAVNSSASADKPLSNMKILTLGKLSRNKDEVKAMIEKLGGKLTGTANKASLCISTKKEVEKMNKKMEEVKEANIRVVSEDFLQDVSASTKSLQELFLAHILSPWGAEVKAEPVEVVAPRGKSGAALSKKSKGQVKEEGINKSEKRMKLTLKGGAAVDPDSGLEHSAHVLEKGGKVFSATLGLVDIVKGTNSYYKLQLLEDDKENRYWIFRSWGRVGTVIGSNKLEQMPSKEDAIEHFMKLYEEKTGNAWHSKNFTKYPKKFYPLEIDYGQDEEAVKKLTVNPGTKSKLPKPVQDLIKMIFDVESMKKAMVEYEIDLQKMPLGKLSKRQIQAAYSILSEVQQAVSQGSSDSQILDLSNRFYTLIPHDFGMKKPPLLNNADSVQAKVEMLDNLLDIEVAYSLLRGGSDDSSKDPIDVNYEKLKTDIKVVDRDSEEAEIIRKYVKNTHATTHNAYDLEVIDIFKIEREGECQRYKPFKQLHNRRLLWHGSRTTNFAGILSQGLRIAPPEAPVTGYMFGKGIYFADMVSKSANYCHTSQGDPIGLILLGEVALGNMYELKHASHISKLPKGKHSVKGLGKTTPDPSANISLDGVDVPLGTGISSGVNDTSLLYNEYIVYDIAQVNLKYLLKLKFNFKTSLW

IC50 [1]	IC50 [2]	IC50 (Histone deacetylase 1)	IC50 [3]	IC50 (T47D)	IC50 (MCF7)	IC50 (MDA-MB-231 [4])	IC50 (HCC827)	IC50 (HeLa)	IC50 (K562)	IC50 (U-937)	IC50 (MDA-MB-231 [5])	Compound	IC50 (MCF-10A)	other results
0.015 µM	0.00253 µM	0.0382 µM	0.0102 µM	4.85 µM	8.08 µM	2.68 µM	2.96 µM	6.49 µM	7.58 µM	3.88 µM	0.94 µM	O=C(/C=C/c1ccc(CN2CCN(C(=O)c3cc(Cc4n[nH]c(=O)c5ccccc45)ccc3F)CC2)cc1)NO	17.4 µM	selectivity ratio [6]: 8.2; IC50 (Raji [7]): 0.81 µM; IC50 (HCC1937): 0.45 µM; Ratio IC50 (Raji [8]): 12; Activity (MDA-MB-231 [9]): 6.01%; Activity (MDA-MB-231 [10]): 5.56%; Activity (MDA-MB-231 [11]): 0.34%; viability at 2.5 µM (MDA-MB-231 [12]): 88.1%; Activity (MDA-MB-231 [13]): 11.9%; Activity (MDA-MB-231 [14]): 7.2%; Activity (MDA-MB-231 [15]): 0.634%; viability at 5 µM (MDA-MB-231 [16]): 80.2%; Activity (MDA-MB-231 [17]): 35.2%; Activity (MDA-MB-231 [18]): 40.8%; Activity (MDA-MB-231 [19]): 1.77%; viability at 10 µM (MDA-MB-231 [20]): 22.3%; Activity (MDA-MB-231 [21]): Dose-dependent effect
0.00616 µM	0.0315 µM	0.503 µM	0.0167 µM	> 50 µM	24.1 µM	33.2 µM	24.1 µM	> 50 µM	43.3 µM	20.5 µM	18.3 µM	O=C(NO)c1ccc(CN2CCN(C(=O)c3cc(Cc4n[nH]c(=O)c5ccccc45)ccc3F)CC2)cc1	> 50 µM	inhibition at 72 h [22]: 20 to 30%; Ratio IC50 (Homo sapiens): 30

— ChEMBL document CHEMBL4052667 (Bioorg Med Chem, 2017)
